Data: paper PMC11442653, “Treating ICB-resistant cancer by inhibiting PD-L1 via DHHC3 degradation induced by cell penetrating peptide-induced chimera conjugates” (Cell Death & Disease, 2024)

Columns and labels:
4T1 cells [1] = assay: 4T1 xenograft model in BALB/c mice, antitumor effect; format: in vivo, mouse
Description: Female BALB/c mice, aged 6–8 weeks and weighing approximately 20 g were procured from the Wuhan Experimental Animal Center, Hubei, China. In vivo studies assessing antitumor effects were performed according to the protocols of the Experimental Animal Welfare and Ethics Committee at Wuhan University. These studies complied with the National Research Council’s guidelines detailed in the “Guide for the Care and Use of Laboratory Animals.” Cells were harvested in an optimal growth phase with approximately 80% confluence, centrifuged to discard the supernatant, and 2 million 4T1 cells were resuspended in 125 µL of PBS. This cell suspension was subcutaneously injected into the dorsal flank of mice to initiate the tumor model. Tumor dimensions were regularly measured using calipers, and the volume was calculated using the following formula: (length × width²)/2. When the tumor volume was 80–100 mm³, the tumor-bearing mice were allocated for further in vivo investigation. […] The treatments were administered via tail vein injections on days 0, 2, 4, 6, 8, 10, and 12. Throughout the experiment, both the weight of the mice and tumor volume were recorded. On day 18, the mice were euthanized via cervical dislocation. The tumors were excised for measurement, photographic documentation, and weighing.

4T1 cells [2] = assay: Activity against ICB-resistant 4T1 tumors in vitro (PD-L1 blockers); format: cell-based, mouse
C33A cells [3] = assay: TUNEL apoptosis assay with cisplatin; format: cell-based, human; conditions: cisplatin vs control
Description: Cells were seeded in 6-well plates at a density between 30% and 50%. Following complete adhesion, various treatments were applied: PBS alone, cisplatin, or a combination of cisplatin and PCC16 for 4 h each. After incubation, the medium was replaced and the cells were rinsed with PBS. The cells were fixed with 4% paraformaldehyde for half an hour and washed again with PBS. To permeabilize the cells, PBS mixed with 0.3% Triton X-100 was added and the cells were incubated at room temperature for 5 min. A specific quantity of the terminal deoxynucleotidyl transferase dUTP nick end labeling (TUNEL) assay reagent was prepared and mixed. After washing the cells on coverslips with PBS twice, 50 µL of the TUNEL reagent was applied to each cell sample. These samples were then incubated at 37 °C in a dark environment for 60 min. The samples were then washed three times with PBS and stained with DAPI for 3–5 min, followed by washing with PBS twice. The final step involved mounting the samples for observation under a fluorescence microscope using an excitation wavelength range of 450–500 nm and an emission wavelength range of 515–565 nm to detect green fluorescence.

C33A cells [4] = assay: Ki67 proliferation assay with cisplatin; format: cell-based, human; conditions: cisplatin vs control
C33A cells [5] = assay: Colony formation assay with cisplatin; format: cell-based, human; conditions: vs control; 4 h treatment, then 7 days
Description: The procedure commenced by counting and seeding cancer cells into a 6-well plate, with each well containing approximately 1000 cells. Following complete cell adhesion, various treatments were applied to each well, including a control PBS solution, cisplatin alone, and a combination of cisplatin and PCC16. This was followed by a 4-h incubation period. Subsequently, the initial culture medium was discarded, and the cells were incubated for additional 7 days in a fresh complete medium, which was renewed every 2–3 days. The cultivation process was halted on the formation of visible colonies detectable under a microscope, with each colony comprising approximately 60–80 cells. Double washing with PBS was conducted, followed by a 20-min fixation of the cells using a tissue cell fixative. After fixation, the cells were washed twice with PBS and stained with 0.1% crystal violet for 20 min. After rinsing the excess stain with deionized water, the plates were air-dried at ambient temperature. The colonies were photographed for documentation, and the cell colony counts in each treatment group was recorded.

| SMILES | effect on ICB-resistant tumors in vivo (4T1 cells [1]; 4T1) | average tumor weight, percent of control group (4T1 cells [1]; 4T1 xenograft, BALB/c mice, tail vein days 0, 2, 4, 6, 8, 10, 12, n = 4) | tumor weight and size (4T1 cells [1]; 4T1 xenograft, vs control, n = 4) | effect on ICB-resistant tumors in vitro (4T1 cells [2]) | apoptosis (C33A cells [3]) | cell proliferation (Ki67) (C33A cells [4]) | number of C33A colonies (C33A cells [5]) |
| --- | --- | --- | --- | --- | --- | --- | --- |
| Cc1c(COc2ccc(CN3CCCCC3C(=O)O)cc2Br)cccc1-c1ccccc1 (stereo not shown) [BMS-8] | no significant effect on ICB-resistant tumors | 90.8% | slight decrease in weight and size | no significant effect on ICB-resistant tumors | – | – | – |
| N.N.[Cl][Pt][Cl] [cisplatin] | – | – | – | – | apoptosis increased | cell proliferation decreased | decreased |
